From ChEMBL document CHEMBL1201861, “Genomics of Drug Sensitity in Cancer screening data, Wellcome Trust Sanger Institute”
Values joined by “and” are separate entries in the source; they are usually repeats but may differ in a detail not shown here. Identical values can stand only once.

What was measured:
Experiment in all cases: cells
[1] = test system: DOK; type: functional, cell-based, Homo sapiens;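 also: cell viability assay read-out, values reflect inhibition of cell growth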
Description: SANGER: Inhibition of human DOK cell growth in a cell viability assay.

[2] = test system: OE19; type: functional, cell-based, Homo sapiens;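 also: growth inhibition of OE19 cells, measured through a cell viability read-out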
Description: SANGER: Inhibition of human OE19 cell growth in a cell viability assay.

[3] = test system: CAL-62; type: functional, cell-based, Homo sapiens;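 also: growth inhibition of CAL-62 cells, read out with a cell viability assay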
Description: SANGER: Inhibition of human CAL-62 cell growth in a cell viability assay.

[4] = test system: HCC38; type: functional, cell-based, Homo sapiens;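 also: cell viability assay on the human HCC38 cell line, with IC50 marking the concentration that inhibits cell growth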
Description: SANGER: Inhibition of human HCC38 cell growth in a cell viability assay.

[5] = test system: COLO-741; type: functional, cell-based, Homo sapiens
Description: SANGER: Inhibition of human COLO-741 cell growth in a cell viability assay.

[6] = test system: HO-1-N-1; type: functional, cell-based, Homo sapiens;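 also: growth inhibition of human HO-1-N-1 cells, read out with a cell viability assay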
Description: SANGER: Inhibition of human HO-1-N-1 cell growth in a cell viability assay.

[7] = test system: EKVX; type: functional, cell-based, Homo sapiens;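 also: growth inhibition of human EKVX cells, read out with a cell viability assay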
Description: SANGER: Inhibition of human EKVX cell growth in a cell viability assay.

[8] = test system: BPH-1; type: functional, cell-based, Homo sapiens;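 also: cell viability assay measuring growth inhibition of human BPH-1 cells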
Description: SANGER: Inhibition of human BPH-1 cell growth in a cell viability assay.

[9] = test system: CGTH-W-1; type: functional, cell-based, Homo sapiens;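 also: growth inhibition of human CGTH-W-1 cells measured by cell viability assay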
Description: SANGER: Inhibition of human CGTH-W-1 cell growth in a cell viability assay.

[10] = test system: SW872; type: functional, cell-based, Homo sapiens;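 also: growth inhibition of SW872 cells, read out by a viability assay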
Description: SANGER: Inhibition of human SW872 cell growth in a cell viability assay.

[11] = test system: BCPAP; type: functional, cell-based, Homo sapiens;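 also: growth inhibition of BCPAP cells, read out in a cell viability assay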
Description: SANGER: Inhibition of human BCPAP cell growth in a cell viability assay.

[12] = test system: UMUC3; type: functional, cell-based, Homo sapiens;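 also: growth inhibition of human UM-UC-3 cells, read out with a cell viability assay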
Description: SANGER: Inhibition of human UM-UC-3 cell growth in a cell viability assay.

[13] = test system: DEL; type: functional, cell-based; conditions: Homo sapiens;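 also: growth inhibition of the human DEL cell line, read out with a cell viability assay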
Description: SANGER: Inhibition of human DEL cell growth in a cell viability assay.

[14] = test system: NCI-H1693; type: functional, cell-based, Homo sapiens;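 also: growth inhibition of the human cell line, read out with a cell viability assay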
Description: SANGER: Inhibition of human NCI-H1693 cell growth in a cell viability assay.

[15] = test system: OCI-AML2; type: functional, cell-based; conditions: Homo sapiens;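 also: growth inhibition of OCI-AML2 cells, read out with a cell viability assay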
Description: SANGER: Inhibition of human OCI-AML2 cell growth in a cell viability assay.

[16] = test system: NCI-H69; type: functional, cell-based; conditions: Homo sapiens;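 also: growth inhibition of the cell line, read out with a cell viability assay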
Description: SANGER: Inhibition of human NCI-H69 cell growth in a cell viability assay.

[17] = test system: NCI-H1299; type: functional, cell-based, Homo sapiens;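 also: growth inhibition of human NCI-H1299 cells, read out by a cell viability assay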
Description: SANGER: Inhibition of human NCI-H1299 cell growth in a cell viability assay.

[18] = test system: DU-145; type: functional, cell-based, Homo sapiens
Description: SANGER: Inhibition of human DU-145 cell growth in a cell viability assay.

[19] = test system: JVM-3; type: functional, cell-based; conditions: Homo sapiens;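 also: growth inhibition of human JVM-3 cells, read out with a cell viability assay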
Description: SANGER: Inhibition of human JVM-3 cell growth in a cell viability assay.

[20] = test system: MEL-HO; type: functional, cell-based, Homo sapiens
Description: SANGER: Inhibition of human MEL-HO cell growth in a cell viability assay.

[21] = test system: MOLT-4; type: functional, cell-based; conditions: Homo sapiens;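 also: growth inhibition of MOLT-4 cells, determined with a cell viability readout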
Description: SANGER: Inhibition of human MOLT-4 cell growth in a cell viability assay.

[22] = test system: Hs-578T; type: functional, cell-based, Homo sapiens
Description: SANGER: Inhibition of human Hs-578-T cell growth in a cell viability assay.

[23] = test system: NH-12; type: functional, cell-based, Homo sapiens;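 also: growth inhibition of NH-12 cells, read out with a cell viability assay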
Description: SANGER: Inhibition of human NH-12 cell growth in a cell viability assay.

[24] = test system: D-263MG; type: functional, cell-based, Homo sapiens
Description: SANGER: Inhibition of human D-263MG cell growth in a cell viability assay.

[25] = test system: RO82-W-1; type: functional, cell-based, Homo sapiens;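 also: growth inhibition of human RO82-W-1 cells, measured with a cell viability assay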
Description: SANGER: Inhibition of human RO82-W-1 cell growth in a cell viability assay.

[26] = test system: A204; type: functional, cell-based, Homo sapiens;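 also: growth inhibition of human A204 cells, read out with a cell viability assay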
Description: SANGER: Inhibition of human A204 cell growth in a cell viability assay.

[27] = test system: ESS-1; type: functional, cell-based, Homo sapiens;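 also: growth inhibition of human ESS-1 cells, read out by a cell viability assay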
Description: SANGER: Inhibition of human ESS-1 cell growth in a cell viability assay.

[28] = test system: T47D; type: functional, cell-based, Homo sapiens;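 also: growth inhibition of human T47D cells, measured with a cell viability assay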
Description: SANGER: Inhibition of human T47D cell growth in a cell viability assay.

[29] = test system: MS-1; type: functional, cell-based; conditions: Homo sapiens;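 also: growth inhibition of MS-1 cells, read out by cell viability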
Description: SANGER: Inhibition of human MS-1 cell growth in a cell viability assay.

[30] = test system: KP-N-YS; type: functional, cell-based; conditions: Homo sapiens;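 also: cell viability assay measuring inhibition of cell line growth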
Description: SANGER: Inhibition of human KP-N-YS cell growth in a cell viability assay.

[31] = test system: NCI-H727; type: functional, cell-based, Homo sapiens;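 also: growth inhibition of human NCI-H727 cells, read out with a cell viability assay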
Description: SANGER: Inhibition of human NCI-H727 cell growth in a cell viability assay.

[32] = test system: CAL-33; type: functional, cell-based, Homo sapiens;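 also: growth inhibition of CAL-33 cells, read out with a cell viability assay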
Description: SANGER: Inhibition of human CAL-33 cell growth in a cell viability assay.

[33] = test system: MN-60; type: functional, cell-based; conditions: Homo sapiens;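 also: growth inhibition of the MN-60 cell line, determined with a cell viability assay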
Description: SANGER: Inhibition of human MN-60 cell growth in a cell viability assay.

[34] = test system: HCE-T; type: functional, cell-based, Homo sapiens;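 also: cell viability assay read-out, reporting inhibition of HCE-T cell growth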
Description: SANGER: Inhibition of human HCE-T cell growth in a cell viability assay.

[35] = test system: UO-31; type: functional, cell-based; conditions: Homo sapiens;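 also: cell viability assay measuring inhibition of cell growth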
Description: SANGER: Inhibition of human U031 cell growth in a cell viability assay.

[36] = test system: NB12; type: functional, cell-based, Homo sapiens;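 also: growth inhibition of human NB12 cells, read out by a cell viability assay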
Description: SANGER: Inhibition of human NB12 cell growth in a cell viability assay.

[37] = test system: D-392MG; type: functional, cell-based, Homo sapiens
[38] = test system: NCI-H446; type: functional, cell-based; conditions: Homo sapiens;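 also: growth inhibition of NCI-H446 cells determined by a cell viability assay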
Description: SANGER: Inhibition of human NCI-H446 cell growth in a cell viability assay.

[39] = test system: SK-N-DZ; type: functional, cell-based, Homo sapiens;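 also: growth inhibition of the cancer cell line, read out through a viability assay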
Description: SANGER: Inhibition of human SK-N-DZ cell growth in a cell viability assay.

[40] = test system: HD-MY-Z; type: functional, cell-based, Homo sapiens;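 also: growth inhibition of HD-MY-Z cells, read out with a cell viability assay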
Description: SANGER: Inhibition of human HD-MY-Z cell growth in a cell viability assay.

[41] = test system: SHP77; type: functional, cell-based, Homo sapiens, SHP-77;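 also: growth inhibition of human SHP-77 cells measured by a cell viability assay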
Description: SANGER: Inhibition of human SHP-77 cell growth in a cell viability assay.

[42] = test system: SK-LU-1; type: functional, cell-based, Homo sapiens;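 also: cell viability assay measuring growth inhibition of human SK-LU-1 cells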
Description: SANGER: Inhibition of human SK-LU-1 cell growth in a cell viability assay.

[43] = test system: GI-1; type: functional, cell-based, Homo sapiens;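 also: growth inhibition of human GI-1 cells, measured with a cell viability readout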
Description: SANGER: Inhibition of human GI-1 cell growth in a cell viability assay.

[44] = test system: COLO-684; type: functional, cell-based; conditions: Homo sapiens
Description: SANGER: Inhibition of human COLO-684 cell growth in a cell viability assay.

[45] = test system: 697; type: functional, cell-based; conditions: Homo sapiens
Description: SANGER: Inhibition of human 697 cell growth in a cell viability assay.

[46] = test system: ACN; type: functional, cell-based, Homo sapiens;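 also: growth inhibition of the human ACN cell line, read out via cell viability testing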
Description: SANGER: Inhibition of human ACN cell growth in a cell viability assay.

[47] = test system: P30-OHK; type: functional, cell-based; conditions: Homo sapiens;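 also: growth inhibition of the P30-OHK cell line, read out with a cell viability assay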
Description: SANGER: Inhibition of human P30-OHK cell growth in a cell viability assay.

[48] = test system: Mo; type: functional, cell-based; conditions: Homo sapiens
Description: SANGER: Inhibition of human Mo-T cell growth in a cell viability assay.

[49] = test system: SW48; type: functional, cell-based, Homo sapiens;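 also: growth inhibition of SW48 cells, read out with a cell viability assay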
Description: SANGER: Inhibition of human SW48 cell growth in a cell viability assay.

[50] = test system: HC-1; type: functional, cell-based; conditions: Homo sapiens;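 also: growth inhibition of HC-1 cells measured by a cell viability assay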
Description: SANGER: Inhibition of human HC-1 cell growth in a cell viability assay.

[51] = test system: EC-GI-10; type: functional, cell-based, Homo sapiens
Description: SANGER: Inhibition of human EC-GI-10 cell growth in a cell viability assay.

[52] = test system: CP66-MEL; type: functional, cell-based, Homo sapiens;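 also: growth inhibition of CP66-MEL cells determined in a cell viability assay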
Description: SANGER: Inhibition of human CP66-MEL cell growth in a cell viability assay.

[53] = test system: MMAC-SF; type: functional, cell-based, Homo sapiens;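 also: growth inhibition of human MMAC-SF cells, read out with a cell viability assay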
Description: SANGER: Inhibition of human MMAC-SF cell growth in a cell viability assay.

Measured: IC50

COc1cc(F)c(F)c(Nc2ccc(I)cc2F)c1NS(=O)(=O)C1(CC(O)CO)CC1 (configuration not stated)
0.774 µM: [10]; Homo sapiens, SW872
1560 nM: [32]; Homo sapiens, CAL-33
> 5000 nM: [28]; Homo sapiens, T47D | [47]
1.76 µM: [22]; Homo sapiens, Hs-578T
591 nM: [6]; Homo sapiens, HO-1-N-1
431 nM: [24]; Homo sapiens, D-263MG
915 nM: [5]; Homo sapiens, COLO-741
2730 nM: [9]; Homo sapiens, CGTH-W-1
> 5 µM: [2]; Homo sapiens, OE19 | [4]; Homo sapiens, HCC38 | [7]; Homo sapiens, EKVX | [12]; Homo sapiens, UMUC3 | [13] | [14]; Homo sapiens, NCI-H1693 | [15] | [16] | [17]; Homo sapiens, NCI-H1299 | [21] | [25]; Homo sapiens, RO82-W-1 | [26]; Homo sapiens, A204 | [27]; Homo sapiens, ESS-1 | [29] | [30] | [31]; Homo sapiens, NCI-H727 | [33] | [34]; Homo sapiens, HCE-T | [35] | [36]; Homo sapiens, NB12 | [37]; Homo sapiens, D-392MG | [38] | [39]; Homo sapiens, SK-N-DZ | [41]; Homo sapiens, SHP77 | [42]; Homo sapiens, SK-LU-1 | [43]; Homo sapiens, GI-1 | [44] | [45] | [48] | [49]; Homo sapiens, SW48
432 nM: [1]; Homo sapiens, DOK
39.4 nM: [20]; Homo sapiens, MEL-HO
886 nM: [40]; Homo sapiens, HD-MY-Z
2.18 µM: [11]; Homo sapiens, BCPAP
682 nM: [3]; Homo sapiens, CAL-62
0.0651 µM: [46]; Homo sapiens, ACN
1060 nM: [18]; Homo sapiens, DU-145
0.135 µM: [8]; Homo sapiens, BPH-1
1.2 µM: [23]; Homo sapiens, NH-12
4.38 µM: [19]

Cc1cc([C@@H](C)Nc2ccccc2C(=O)O)c2nc(N3CCOCC3)cc(=O)n2c1 [AZD-6482]
4.3 µM: [8]; bph-1
> 5120 nM: [3]; cal-62 | [5]; colo-741 | [6]; ho-1-n-1 | [9]; cgth-w-1 | [40]; hd-my-z
1.32 µM and > 5.12 µM: [43]; gi-1
1490 nM: [32]; Homo sapiens, CAL-33
> 5.12 µM and 2.32 µM: [39]; sk-n-dz
2.77 µM: [26]; a204
4.6 µM: [45]
> 5.12 µM and 2.09 µM: [34]; hce-t
3.67 µM and > 5.12 µM: [17]; nci-h1299
2550 nM: [32]; cal-33
4.9 µM: [8]; Homo sapiens, BPH-1
> 5.12 µM: [2]; oe19 | [4]; hcc38 | [7]; ekvx | [11]; Homo sapiens, BCPAP | [11]; bcpap | [12]; umuc3 | [13] | [14]; nci-h1693 | [15] | [16] | [19] | [21] | [23]; Homo sapiens, NH-12 | [23]; nh-12 | [25]; ro82-w-1 | [26]; Homo sapiens, A204 | [27]; Homo sapiens, ESS-1 | [27]; ess-1 | [29] | [50] | [30] | [31]; nci-h727 | [51]; ec-gi-10 | [33] | [37]; d-392mg | [38] | [52]; Homo sapiens, CP66-MEL | [52]; cp66-mel | [41]; shp-77 | [42]; sk-lu-1 | [46]; Homo sapiens, ACN | [46]; acn | [48] | [53]; mmac-sf | [49]; Homo sapiens, SW48 | [49]; sw48
> 5.12 µM and 3.5 µM: [22]; hs-578-t
3850 nM and 1530 nM: [1]; dok
533 nM: [28]; Homo sapiens, T47D
1240 nM and > 5120 nM: [20]; mel-ho
938 nM: [28]; t47d
1070 nM: [47]
2.2 µM: [44]
1.55 µM and > 5.12 µM: [36]; nb12
> 5120 nM and 1370 nM: [18]; du-145
> 5120 nM and 2170 nM: [24]; d-263mg
> 5.12 µM and 3.09 µM: [10]; sw872

CNC(=O)c1cc(Oc2ccc(NC(=O)Nc3ccc(Cl)c(C(F)(F)F)c3)cc2)ccn1 [SORAFENIB]
250 nM: [9]; Homo sapiens, CGTH-W-1
> 4000 nM: [24]; Homo sapiens, D-263MG | [40]; Homo sapiens, HD-MY-Z | [47]
> 4 µM: [7]; Homo sapiens, EKVX | [10]; Homo sapiens, SW872 | [13] | [15] | [16] | [17]; Homo sapiens, NCI-H1299 | [19] | [21] | [23]; Homo sapiens, NH-12 | [29] | [50] | [30] | [51]; Homo sapiens, EC-GI-10 | [33] | [34]; Homo sapiens, HCE-T | [36]; Homo sapiens, NB12 | [37]; Homo sapiens, D-392MG | [38] | [39]; Homo sapiens, SK-N-DZ | [52]; Homo sapiens, CP66-MEL | [41]; Homo sapiens, SHP77 | [43]; Homo sapiens, GI-1 | [44] | [45] | [46]; Homo sapiens, ACN | [48] | [53]; Homo sapiens, MMAC-SF
